The record followed here is patent publication US8148391B2 (Cephalon, Inc., priority 2006, dated 2012).

Like-named read-outs stand apart in the source and are kept apart here.

The target in assay [1] is T1, c-Met (cytoplasmic domain) (Homo sapiens, UniProt P08581).
T1 construct: 10 ng/mL c-Met (cytoplasmic domain, Invitrogen Corporation #PV3143); purchased Invitrogen Corporation PV3143
Nature of the assay: c-Met Kinase Assay (same methods as for ALK, with modifications). Type of assay: biochemical. The essentials: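 This plate-based kinase format uses immobilized phospholipase C-γ as substrate, phosphorylated by c-Met cytoplasmic domain (10 ng/mL) at 37° C for 15 minutes.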

In assay [2] the target is T2, baculovirus-expressed ALK (Homo sapiens, UniProt Q9UM73).
T2 construct: host or cells: baculovirus expression system
T2 sequence (Q9UM73 19-1620): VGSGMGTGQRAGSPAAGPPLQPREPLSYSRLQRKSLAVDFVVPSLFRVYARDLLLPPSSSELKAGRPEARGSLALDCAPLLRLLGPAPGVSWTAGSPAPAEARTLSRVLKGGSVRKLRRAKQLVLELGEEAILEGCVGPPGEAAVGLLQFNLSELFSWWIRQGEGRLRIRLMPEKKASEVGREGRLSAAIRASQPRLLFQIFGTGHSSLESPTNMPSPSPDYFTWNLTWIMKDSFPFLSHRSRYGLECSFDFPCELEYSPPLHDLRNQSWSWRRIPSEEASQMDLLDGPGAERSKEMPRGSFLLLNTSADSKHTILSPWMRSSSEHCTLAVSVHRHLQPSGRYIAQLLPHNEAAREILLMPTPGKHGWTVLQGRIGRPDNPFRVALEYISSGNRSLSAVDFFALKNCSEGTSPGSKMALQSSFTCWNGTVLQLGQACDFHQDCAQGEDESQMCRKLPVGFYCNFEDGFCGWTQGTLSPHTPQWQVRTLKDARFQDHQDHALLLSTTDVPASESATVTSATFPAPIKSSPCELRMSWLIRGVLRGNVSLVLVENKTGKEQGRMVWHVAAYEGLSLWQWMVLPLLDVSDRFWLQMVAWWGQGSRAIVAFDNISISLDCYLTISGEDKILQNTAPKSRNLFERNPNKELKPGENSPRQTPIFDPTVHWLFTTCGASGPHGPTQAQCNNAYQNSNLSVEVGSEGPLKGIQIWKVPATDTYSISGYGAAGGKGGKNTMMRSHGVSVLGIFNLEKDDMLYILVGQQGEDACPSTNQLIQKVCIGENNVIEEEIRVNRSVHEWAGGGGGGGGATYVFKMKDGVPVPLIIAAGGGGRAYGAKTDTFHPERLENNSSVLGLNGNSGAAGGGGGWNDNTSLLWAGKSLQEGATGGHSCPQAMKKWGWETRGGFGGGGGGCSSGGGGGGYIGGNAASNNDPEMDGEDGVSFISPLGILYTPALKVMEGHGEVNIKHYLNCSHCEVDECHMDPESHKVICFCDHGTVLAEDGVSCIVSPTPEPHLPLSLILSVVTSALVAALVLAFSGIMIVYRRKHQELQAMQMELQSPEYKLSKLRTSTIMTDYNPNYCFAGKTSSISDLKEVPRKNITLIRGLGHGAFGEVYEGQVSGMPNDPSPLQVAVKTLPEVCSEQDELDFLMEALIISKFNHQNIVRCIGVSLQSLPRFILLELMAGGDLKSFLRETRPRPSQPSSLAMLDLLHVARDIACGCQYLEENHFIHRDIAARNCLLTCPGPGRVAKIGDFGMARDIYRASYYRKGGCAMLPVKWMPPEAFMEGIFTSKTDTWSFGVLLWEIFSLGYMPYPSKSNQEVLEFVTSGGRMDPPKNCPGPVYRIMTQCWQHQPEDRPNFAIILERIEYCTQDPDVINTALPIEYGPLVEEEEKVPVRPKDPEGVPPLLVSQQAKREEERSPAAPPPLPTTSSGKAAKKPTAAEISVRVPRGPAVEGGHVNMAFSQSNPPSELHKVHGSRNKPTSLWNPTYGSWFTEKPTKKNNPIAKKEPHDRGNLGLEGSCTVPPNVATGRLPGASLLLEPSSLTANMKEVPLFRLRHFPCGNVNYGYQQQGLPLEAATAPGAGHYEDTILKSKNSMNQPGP
Nature of the assay: ALK Kinase Assay (ELISA-type, time-resolved fluorescence). Type of assay: biochemical. The gist of the method:
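Substrate coating: phospholipase C-γ, 10 μg/mL in TBS. Kinase step: 30 ng/ml ALK, 15 min, 37° C. Detection and analysis: Eu-N1 PT66 antibody, with IC50 fitted as a sigmoidal variable-slope dose-response curve.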

Where [3] appears, read: 1 μM ATP (Km level), 10 ng/mL c-Met, read-out: cMet Activity (c-Met kinase inhibition, IC50 class).
[4] abbreviates: 1 μM ATP (Km level), 30 ng/ml ALK, 37° C., 15 minutes, read-out: ALK Activity (ALK kinase inhibition, IC50 class).
The mark [5] stands for this setting: c-Met kinase inhibition, 1 μM ATP (Km level), read-out: cMet Activity.
The mark [6] stands for this setting: ALK kinase inhibition, 1 μM ATP (Km level), read-out: ALK Activity.
Where [7] appears, read: c-Met kinase inhibition, 1 μM ATP, read-out: cMet Activity.
Where [8] appears, read: ALK kinase inhibition, 1 μM ATP, read-out: ALK Activity.
[9] abbreviates: 1 μM ATP (Km level), read-out: cMet Activity (c-Met Kinase Inhibition, IC50).
[10] abbreviates: 1 μM ATP (Km level), read-out: ALK Activity (ALK Kinase Inhibition, IC50).

T1 sequence (P08581 956-1390 limits assumed): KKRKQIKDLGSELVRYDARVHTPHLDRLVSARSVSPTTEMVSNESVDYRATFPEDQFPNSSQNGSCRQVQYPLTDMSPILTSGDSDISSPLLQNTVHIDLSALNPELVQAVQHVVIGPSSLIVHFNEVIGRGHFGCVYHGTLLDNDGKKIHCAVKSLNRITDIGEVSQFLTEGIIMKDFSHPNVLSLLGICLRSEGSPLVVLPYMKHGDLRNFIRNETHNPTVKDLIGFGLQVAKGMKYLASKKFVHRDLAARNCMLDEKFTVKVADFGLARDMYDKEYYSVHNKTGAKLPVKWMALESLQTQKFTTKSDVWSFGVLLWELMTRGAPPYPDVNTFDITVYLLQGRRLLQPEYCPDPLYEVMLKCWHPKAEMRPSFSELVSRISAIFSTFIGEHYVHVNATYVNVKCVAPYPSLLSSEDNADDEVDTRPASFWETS

As for `CNC(=O)c1cccc(O)c1Nc1nc(Nc2ccc3c(c2)CCN(CCOC)CC3)ncc1Cl` [Example 1227, 2-{5-Chloro-2-[3-(2-methoxy-ethyl)-2,3,4,5-tetrahydro-1H-3-benzazepin-7-ylamino]-pyrimidin-4-ylamino}-3-hydroxy-N-methyl-benzamide], the IC50 in assay [1] (setting [3]) and in assay [2] (setting [4]) was 100 to 1000 nM throughout.

On to `COc1cc2c(cc1Nc1ncc(Cl)c(N[C@H]3[C@@H](C(N)=O)[C@@H]4C=C[C@H]3C4)n1)C(C)(C)CCC(=O)N2` [Example 1312], for which the IC50 in assay [1] (setting [3]) is over 10000 nM; in assay [2] (setting [4]) it was under 100 nM.

Consider `CCN1CCc2ccc(Nc3ncc(Cl)c(N[C@@H]4CCCC[C@H]4O)n3)cc2CC1` (relative stereo) [Example 319, trans-2-[5-Chloro-2-(3-ethyl-2,3,4,5-tetrahydro-1H-benzo[d]azepin-7-ylamino)-pyrimidin-4-ylamino]-cyclohexanol], for which the IC50 in assay [1] (setting [5]) was over 10000 nM; in assay [2] (setting [6]), 100 to 1000 nM.

`CNC(=O)c1ccccc1Nc1nc(Nc2ccc3c(c2)C2CCC(C3)N2CCOC)ncc1Cl` (centres unmarked) [Example 68, 2-{5-Chloro-2-[12-(2-methoxy-ethyl)-12-aza-tricyclo[7.2.1.0*2,7*]dodeca-2(7),3,5-trien-4-ylamino]-pyrimidin-4-ylamino}-N-methyl-benzamide]: the IC50 in assay [1] (setting [5]) and in assay [2] (setting [6]) was under 100 nM in each case.

With `CN1C(=O)CCCc2cc(Nc3ncc(Cl)c(Nc4ccc(N5CCOCC5)cc4C(N)=O)n3)ccc21` [Example 355, 2-[5-Chloro-2-(1-methyl-2-oxo-2,3,4,5-tetrahydro-1H-benzo[b]azepin-7-ylamino)pyrimidin-4-ylamino]-5-morpholin-4-yl-benzamide], the IC50 is 100 to 1000 nM in assay [1] (setting [5]) and under 100 nM in assay [2] (setting [6]).

With `CNC(=O)c1sccc1Nc1nc(Nc2ccc3c(c2)N(C(C)=O)CC(=O)NC3)ncc1Cl` [Example 1878, 3-[2-(1-Acetyl-3-oxo-2,3,4,5-tetrahydro-1H-benzo[e][1,4]diazepin-8-ylamino)-5-chloro-pyrimidin-4-ylamino]-thiophene-2-carboxylic acid methyl amide], the IC50 was under 100 nM in assay [1] (setting [5]) and 100 to 1000 nM in assay [2] (setting [6]).

Take `CC1(C)CCCNc2cc(Nc3ncc(Cl)c(N[C@H]4[C@@H](C(N)=O)[C@@H]5C=C[C@H]4C5)n3)ccc21` [Example 1613, (1S,2S,3R,4R)-3-[5-Chloro-2-(5,5-dimethyl-2,3,4,5-tetrahydro-1H-benzo[b]azepin-8-ylamino)-pyrimidin-4-ylamino]-bicyclo[2.2.1]hept-5-ene-2-carboxylic acid amide]: the results for the IC50 in assay [1] (setting [7]) and in assay [2] (setting [8]) were 100 to 1000 nM and under 100 nM, respectively.

In the case of `COc1cc2c(cc1Nc1ncc(Cl)c(N[C@H]3[C@@H](C(N)=O)[C@@H]4C=C[C@H]3C4)n1)CCN(C[C@H](O)C(F)(F)F)CC2` [Example 1673, (1S,2S,3R,4R)-3-{5-Chloro-2-[8-methoxy-3-((S)-3,3,3-trifluoro-2-hydroxy-propyl)-2,3,4,5-tetrahydro-1H-benzo[d]azepin-7-ylamino]-pyrimidin-4-ylamino}-bicyclo[2.2.1]hept-5-ene-2-carboxylic acid amide], the IC50 is over 10000 nM in assay [1] (setting [7]) and under 100 nM in assay [2] (setting [8]).

Turning to `C=CCN1CCNC(=O)c2cccc(Nc3ncc(Cl)c(Nc4ccccc4C(=O)NC)n3)c21` [Example 545, 2-[2-(1-Allyl-5-oxo-2,3,4,5-tetrahydro-1H-benzo[e][1,4]diazepin-9-ylamino)-5-chloro-pyrimidin-4-ylamino]-N-methyl-benzamide], the IC50 is over 10000 nM in assay [1] (setting [9]) and 1000 to 10000 nM in assay [2] (setting [10]).

Consider `CCN1CCN(CC)c2cc(Nc3nc(Nc4cc5c(cc4OC)CCN(CC(=O)N(C)C)CC5)ncc3Cl)ccc2C1=O` [Example 724, 2-{7-[5-Chloro-4-(1,4-diethyl-5-oxo-2,3,4,5-tetrahydro-1H-benzo[e][1,4]diazepin-8-ylamino)-pyrimidin-2-ylamino]-8-methoxy-1,2,3,4-tetrahydro-benzo[d]azepin-3-yl}-N,N-dimethyl-acetamide], for which the IC50 is over 10000 nM in assay [1] (setting [9]) and under 100 nM in assay [2] (setting [10]).
